The results in this text go back to patent publication US7550469B2, “Heterocyclic amide derivatives and their use as dopamine D3 receptor ligands” (Aventis Pharmaceuticals Inc., priority 2001, dated 2009).

This assay deals with T1, cloned human dopamine D3 receptors (Homo sapiens, UniProt P35462).
T1 construct: expressed in transfected cells; membrane homogenate
Briefly: [N-Methyl-3H]Spiroperidol binding to cloned human dopamine D3 receptors (Protocol 1). The method, boiled down:
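Membranes from CHO cells stably expressing cloned human D3 receptor were used for [N-methyl-3H]spiroperidol (60-90 Ci/mmol) binding. Assay buffer was 0.05 M Tris HCl pH 7.7 with 120 mM NaCl, 5 mM KCl, 2 mM CaCl2 and 1 mM MgCl2, optionally 0.1% ascorbic acid; total ligand concentration calculated from added CPM.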

The mark [1] stands for this setting: the 16th table, read-out: D3 Ki.
Where [2] appears, read: the 22nd table, read-out: D3 Ki.
[3] abbreviates: the 17th table, read-out: D3 Ki.
Where [4] appears, read: the 24th table, read-out: D3 Ki.

Each structure is given as a SMILES string. Like-named read-outs stand apart in the source and are kept apart here.

T1 sequence (P35462 whole entry): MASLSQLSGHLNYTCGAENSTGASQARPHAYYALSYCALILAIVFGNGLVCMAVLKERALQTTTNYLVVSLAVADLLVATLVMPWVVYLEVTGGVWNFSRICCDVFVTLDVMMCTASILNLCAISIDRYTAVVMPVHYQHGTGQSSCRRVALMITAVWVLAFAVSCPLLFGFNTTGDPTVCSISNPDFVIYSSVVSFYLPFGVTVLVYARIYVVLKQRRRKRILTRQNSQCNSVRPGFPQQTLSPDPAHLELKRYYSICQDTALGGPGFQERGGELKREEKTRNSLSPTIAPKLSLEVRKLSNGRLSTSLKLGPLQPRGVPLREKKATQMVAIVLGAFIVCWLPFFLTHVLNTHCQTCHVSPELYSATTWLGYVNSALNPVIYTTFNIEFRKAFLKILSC

With `Cc1ccc2cc(C(=O)NCCCCN3CCCN(c4csc5cc(F)ccc45)CC3)oc2c1` [compound 827130], the Ki (Table 2, read-out: D3K1) was found to be 0.0154 µM and the Ki under setting [1] was found to be 0.0154 µM.
Turning to `COc1cc(C)c2cc(C(=O)NCCCCN3CCCN(c4csc5cc(F)ccc45)CC3)oc2c1OC` [compound 827131], the Ki (Table 2, read-out: D3K1) was determined as 0.00418 µM and the Ki under setting [1] came out at 0.00418 µM.
For the molecule `CC(C)(C)c1cc(C(C)(C)C)c2oc(C(=O)NCCCCN3CCCN(c4csc5cc(F)ccc45)CC3)cc2c1` [compound 827132], the Ki (Table 2, read-out: D3K1) stood at 0.129 µM and the Ki under setting [1] came to 0.129 µM.
Turning to `CCOc1cccc2cc(C(=O)NCCCCN3CCCN(c4csc5cc(F)ccc45)CC3)oc12` [compound 827133], the Ki is, setting by setting: (Table 2, read-out: D3K1) 0.0126 µM; under setting [1], 0.0126 µM.
Consider `O=C(NCCCN1CCCN(c2csc3cc(F)ccc23)CC1)c1cccs1` [compound 827134], for which the Ki is, setting by setting: (Table 2, read-out: D3K1) 0.062 µM; under setting [1], 0.062 µM.
Turning to `O=C(NCCCN1CCCN(c2csc3cc(F)ccc23)CC1)c1cccc(Cl)c1` [compound 827135], the Ki stood at 0.141 µM (Table 2, read-out: D3K1) and 0.141 µM under setting [1].
As for `COc1cc(OC)cc(C(=O)NCCCN2CCCN(c3csc4cc(F)ccc34)CC2)c1` [compound 827136], the Ki (Table 2, read-out: D3K1) amounted to 0.268 µM and the Ki under setting [1] was determined as 0.268 µM.
Consider `O=C(NCCCN1CCCN(c2csc3cc(F)ccc23)CC1)c1cccc2ccccc12` [compound 827138], for which the Ki amounted to 0.166 µM (Table 2, read-out: D3K1) and 0.166 µM under setting [1].
On to `O=C(NCCCN1CCCN(c2csc3cc(F)ccc23)CC1)c1ccc2ccccc2c1` [compound 827139], for which the Ki (Table 2, read-out: D3K1) came out at 0.131 µM and the Ki under setting [1] was found to be 0.131 µM.
For the molecule `COc1ccccc1C(=O)NCCCN1CCCN(c2csc3cc(F)ccc23)CC1` [compound 827141], the Ki came to 0.099 µM (Table 2, read-out: D3K1) and 0.099 µM under setting [1].
In the case of `O=C(NCCCN1CCCN(c2csc3cc(F)ccc23)CC1)c1cccc(F)c1` [compound 827142], the Ki runs as follows: (Table 2, read-out: D3K1) 0.101 µM; under setting [1], 0.101 µM.
In the case of `O=C(NCCCN1CCCN(c2csc3cc(F)ccc23)CC1)c1cc2ccccc2s1` [compound 827143], the Ki reads like this: (Table 2, read-out: D3K1) 0.123 µM; under setting [1], 0.123 µM.
On to `O=C(NCCCCCN1CCCN(c2csc3cc(F)ccc23)CC1)c1cc(-c2ccco2)nc2ccccc12` [compound 827159], for which the Ki (Table 2, read-out: D3K1) was determined as 0.00585 µM and the Ki under setting [1] turned out to be 0.00585 µM.
As for `CC1=C(C(=O)NCCCCN2[C@H](C)CN(c3csc4cc(F)ccc34)C[C@@H]2C)Cc2ccccc21` [compound 827255], for the setting “the 21st table, read-out: D3 Ki”, the Ki is 0.0537 µM.
As to `O=C(NC/C=C\CN1CCN(c2csc3cc(C(F)(F)F)ccc23)CC1)c1cc2ccccc2s1` [compound 827709], the Ki (read-out: D3K1) was found to be 0.028 µM.
Regarding `O=C(NC/C=C/CN1CCN(c2csc3cc(C(F)(F)F)ccc23)CC1)c1ccsc1` [compound 827710], for the setting “read-out: D3K1”, the Ki was 0.031 µM.
In the case of `O=C(NC/C=C/CN1CCN(c2csc3cc(C(F)(F)F)ccc23)CC1)C1CCC1` [compound 827711], for the setting “read-out: D3K1”, the Ki is 0.23 µM.
On to `O=C(NC/C=C/CN1CCN(c2csc3cc(C(F)(F)F)ccc23)CC1)C1CCCC1` [compound 827712], for which the Ki (read-out: D3K1) stood at 0.066 µM.
As to `O=C(NC/C=C/CN1CCN(c2csc3cc(C(F)(F)F)ccc23)CC1)c1ccccn1` [compound 827713], for the setting “read-out: D3K1”, the Ki is 0.065 µM.
On to `O=C(NC/C=C/CN1CCN(c2csc3cc(C(F)(F)F)ccc23)CC1)c1cccnc1` [compound 827714], for which the Ki (read-out: D3K1) was found to be 0.043 µM.
Regarding `O=C(NC/C=C/CN1CCN(c2csc3cc(C(F)(F)F)ccc23)CC1)c1ccccc1` [compound 827715], under “read-out: D3K1”, the Ki amounted to 0.024 µM.
On to `O=C(NC/C=C/CN1CCN(c2csc3cc(C(F)(F)F)ccc23)CC1)c1cc(F)cc(F)c1` [compound 827716], for which the Ki (read-out: D3K1) stood at 0.098 µM.
For `O=C(NC/C=C/CN1CCN(c2csc3cc(C(F)(F)F)ccc23)CC1)C1CCCCC1` [compound 827717], under “read-out: D3K1”, the Ki was 0.0095 µM.
With `O=C(NC/C=C/CN1CCN(c2csc3cc(C(F)(F)F)ccc23)CC1)c1cccc(Cl)c1` [compound 827718], the Ki (read-out: D3K1) amounted to 0.15 µM.
In the case of `O=C(NC/C=C/CN1CCN(c2csc3cc(C(F)(F)F)ccc23)CC1)c1ccc(F)cc1` [compound 827719], where the note is “read-out: D3K1”, the Ki came out at 0.051 µM.
The same measure, in the same setting: the result for `O=C(NC/C=C/CN1CCN(c2csc3cc(C(F)(F)F)ccc23)CC1)c1cccc(F)c1` [compound 827720] reads 0.086 µM; that for `N#Cc1cccc(C(=O)NC/C=C/CN2CCN(c3csc4cc(C(F)(F)F)ccc34)CC2)c1` [compound 827721], 0.091 µM.
With `COc1cccc(C(=O)NC/C=C/CN2CCN(c3csc4cc(C(F)(F)F)ccc34)CC2)c1` [compound 827722], where the note is “read-out: D3K1”, the Ki came out at 0.059 µM.
Turning to `O=C(NC/C=C/CN1CCN(c2csc3cc(C(F)(F)F)ccc23)CC1)c1cccc(C(F)(F)F)c1` [compound 827724], the Ki (read-out: D3K1) is 0.12 µM.
On to `O=C(COc1ccccc1)NC/C=C/CN1CCN(c2csc3cc(C(F)(F)F)ccc23)CC1` [compound 827725], for which, under “read-out: D3K1”, the Ki came to 0.12 µM.
Same read-out and setting: in the case of `O=C(NC/C=C/CN1CCN(c2csc3cc(C(F)(F)F)ccc23)CC1)c1ccc(OC(F)(F)F)cc1` [compound 827726] it was 0.092 µM.
Take `O=C(NC/C=C/CN1CCN(c2csc3cc(C(F)(F)F)ccc23)CC1)c1cc2ccccc2s1` [compound 827728]: where the note is “read-out: D3K1”, the Ki stood at 0.016 µM.
Consider `O=C(NCCCCCCN1CCN(c2csc3cc(C(F)(F)F)ccc23)CC1)c1cccc(F)c1` [compound 827730], for which the Ki by setting is: (read-out: D3K1) 0.0027 µM; (the 14th table, read-out: D3 Ki) 0.0027 µM.
With `COc1ccc(C(=O)NC/C=C\CN2CCN(c3csc4cc(C(F)(F)F)ccc34)CC2)cc1` [compound 827734], the Ki (Table 2, read-out: D3K1) is 0.0373 µM.
Still for that read-out and setting: the result for `COc1ccc(/C=C/C(=O)NC/C=C\CN2CCN(c3csc4cc(C(F)(F)F)ccc34)CC2)cc1` [compound 827735] reads 0.0244 µM; that for `O=C(NC/C=C\CN1CCN(c2csc3cc(C(F)(F)F)ccc23)CC1)C1(c2ccccc2)CC1` [compound 827736], 0.173 µM; that for `CC(=O)C1CC(CC(=O)NC/C=C\CN2CCN(c3csc4cc(C(F)(F)F)ccc34)CC2)C1(C)C` (stereo not drawn) [compound 827737], 0.108 µM.
On to `COc1ccc(C(=O)NC/C=C/CN2CCN(c3csc4cc(C(F)(F)F)ccc34)CC2)cc1` [compound 827738], for which, where the note is “Table 2, read-out: D3K1”, the Ki was 0.0226 µM.
As for `COc1ccc(/C=C/C(=O)NC/C=C/CN2CCN(c3csc4cc(C(F)(F)F)ccc34)CC2)cc1` [compound 827739], the Ki (Table 2, read-out: D3K1) was found to be 0.0224 µM.
On the same count and under the same terms, the result for `O=C(NC/C=C/CN1CCN(c2csc3cc(C(F)(F)F)ccc23)CC1)C1(c2ccccc2)CC1` [compound 827740] reads 0.397 µM; that for `CC(=O)C1CC(CC(=O)NC/C=C/CN2CCN(c3csc4cc(C(F)(F)F)ccc34)CC2)C1(C)C` (stereo not drawn) [compound 827741], 0.246 µM.
The same measure, in the same setting: the result for `O=C(NC/C=C/CN1CCN(c2csc3cc(C(F)(F)F)ccc23)CC1)c1cc2ccccc2[nH]1` [compound 827742] reads 0.0213 µM.
As for `O=C(NCCCCN1CCN(c2noc3ccsc23)CC1)c1cccc(C(F)(F)F)c1` [compound 829673], under setting [2], the Ki came to 0.515 µM.
As for `O=C(NCCCCN1CCN(c2noc3ccsc23)CC1)c1ccc(F)cc1` [compound 829674], the Ki under setting [2] came out at 0.0902 µM.
Take `O=C(NCCCCN1CCN(c2noc3ccsc23)CC1)c1ccc(Cl)cc1` [compound 829675]: under setting [2], the Ki is 0.0389 µM.
Same read-out and setting: the result for `O=C(NCCCCN1CCN(c2noc3ccsc23)CC1)c1ccc(C(F)(F)F)cc1` [compound 829677] reads 0.0966 µM; that for `O=C(NCCCCN1CCN(c2noc3ccsc23)CC1)c1cc(Cl)cc(Cl)c1` [compound 829678], 0.275 µM; that for `O=C(NCCCCN1CCN(c2noc3ccsc23)CC1)c1ccc(-c2ccccc2)cc1` [compound 829680], 0.0147 µM.
Still for that read-out and setting: in the case of `O=C(NCCCCN1CCN(c2noc3ccsc23)CC1)c1cc2ccccc2s1` [compound 829681] it was 0.0177 µM; in that of `O=C(NCCCCN1CCN(c2noc3ccsc23)CC1)c1cc2ccccc2[nH]1` [compound 829682], 0.0189 µM.
As to `O=C(NCCCCN1CCN(c2noc3ccsc23)CC1)c1ccc2[nH]ccc2c1` [compound 829683], the Ki under setting [2] was determined as 0.0375 µM.
On the same count and under the same terms, the result for `CCCCc1ccc(C(=O)NCCCCN2CCN(c3noc4ccsc34)CC2)cc1` [compound 829685] reads 0.149 µM; that for `N#Cc1ccc(C(=O)NCCCCN2CCN(c3noc4ccsc34)CC2)cc1` [compound 829686], 0.0421 µM; that for `O=C(NCCCCN1CCN(c2noc3ccsc23)CC1)c1cccs1` [compound 829687], 0.0503 µM.
Take `O=C(NCCCCN1CCN(c2noc3ccsc23)CC1)c1cnc2ccccc2n1` [compound 829688]: under setting [2], the Ki was 0.673 µM.
Still for that read-out and setting: the result for `O=C(NCCCCN1CCN(c2noc3ccsc23)CC1)c1cc(C(F)(F)F)ccc1F` [compound 829691] reads 0.151 µM.
For `Cc1csc2c(N3CCN(CCCCNC(=O)CCCc4ccccc4)CC3)noc12` [compound 830748], the Ki under setting [2] came to 0.0638 µM.
For `O=C(Cc1ccccc1)NC[C@@H]1CC1CN1CCCN(c2csc3cc(F)ccc23)CC1` (stereo partly drawn) [compound 831203], under setting [3], the Ki was determined as 0.00321 µM.
As to `O=C(Cc1ccccc1)NC[C@@H]1CC1CN1CCCN(c2csc3cc(F)ccc23)CC1` (stereo partly drawn) [compound 831204], the Ki under setting [3] worked out at 0.00505 µM.
As for `O=S(=O)(NCC1CC1CN1CCC(c2noc3ccsc23)CC1)c1ccc(F)cc1` (stereo not drawn) [compound 831363], under setting [4], the Ki came out at 0.0363 µM.
The same measure, in the same setting: in the case of `CC(C)S(=O)(=O)NCC1CC1CN1CCC(c2noc3ccsc23)CC1` (stereo not drawn) [compound 831366] it was 0.113 µM; in that of `COc1ccc(S(=O)(=O)NCC2CC2CN2CCC(c3noc4ccsc34)CC2)cc1` (stereo not drawn) [compound 831464], 0.0433 µM; in that of `COc1ccc(S(=O)(=O)NCC2CC2CN2CCN(c3csc4cc(C(F)(F)F)ccc34)CC2)cc1` (stereo not drawn) [compound 831500], 0.0281 µM.
Consider `CC(C)(C)c1ccc(S(=O)(=O)NCC2CC2CN2CCC(c3noc4ccsc34)CC2)cc1` (stereo not drawn) [compound 831512], for which the Ki under setting [4] was 0.0539 µM.
